Assay results published in patent publication US9850283B2, “Macrocyclic inhibitors of the PD-1/PD-L1 and CD80(B7-1)/PD-L1 protein/protein interactions” (BRISTOL-MYERS SQUIBB COMPANY, priority 2013, dated 2017).
Like-named read-outs stand apart in the source and are kept apart here. Positions of bridges follow the written chain, without caps; N, C: chain ends. Non-standard residues stand in square brackets, D forms with d. Residues, ends and D or L forms follow the SMILES beside them. ξ: configuration not given here. Phe(3-CF3) = N[C@@H](Cc1cccc(C(F)(F)F)c1)C(=O)O; Trp(7-Me) = Cc1cccc2c(C[C@H](N)C(=O)O)c[nH]c12; Pro(trans-4-F) = O=C(O)[C@@H]1C[C@@H](F)CN1; Phe(3-OMe) = COc1cccc(C[C@H](N)C(=O)O)c1; Pro(4,4-F2) = O=C(O)[C@@H]1CC(F)(F)CN1; Bta = N[C@@H](Cc1csc2ccccc12)C(=O)O; ξPro(4R-OH) = O=C(O)C1C[C@@H](O)CN1; cisHyp = O=C(O)[C@@H]1C[C@H](O)CN1; Hyp = O=C(O)[C@@H]1C[C@@H](O)CN1; NMeNle = CCCC[C@H](NC)C(=O)O; NMeA = CN[C@@H](C)C(=O)O; Dab = NCC[C@H](N)C(=O)O; Dap = NC[C@H](N)C(=O)O; ξC = NC(CS)C(=O)O; Sar = CNCC(=O)O

Legend:
Human PD-L1/PD-1 = molecular target: T1, Human PD-L1/PD-1 (Homo sapiens, UniProt Q9NZQ7); assay: HTRF PD-1-Ig/PD-L1-His binding assay (human PD-L1)
T1 construct: made in house; host or cells: HEK293T
T1 sequence (Q9NZQ7 with tags, fused parts or gaps): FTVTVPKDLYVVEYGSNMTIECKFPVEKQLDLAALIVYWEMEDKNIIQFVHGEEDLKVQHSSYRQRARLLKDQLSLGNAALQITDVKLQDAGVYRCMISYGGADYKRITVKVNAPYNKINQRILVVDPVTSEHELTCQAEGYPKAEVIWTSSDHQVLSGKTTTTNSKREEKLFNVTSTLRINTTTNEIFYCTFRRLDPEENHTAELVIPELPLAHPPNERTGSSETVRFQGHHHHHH
How it was run: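 The time-resolved fluorescence signal comes from Eu-cryptate anti-Ig (1 nM) and APC anti-His (20 nM) antibodies bound to a PD-1-Ig/PD-L1-His complex. Both partners lack transmembrane regions.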

[1] = molecular target: T2, LK35.2-hPD-L1 cells / PE-labeled PD-1-Ig (Homo sapiens, UniProt Q9NZQ7); assay: LK35.2-hPD-L1 cell binding high-content screening assay; format: cell-based
T2 construct: expressed in transfected cells; host or cells: LK35.2 mouse B cell line
T2 sequence (Q9NZQ7 19-290): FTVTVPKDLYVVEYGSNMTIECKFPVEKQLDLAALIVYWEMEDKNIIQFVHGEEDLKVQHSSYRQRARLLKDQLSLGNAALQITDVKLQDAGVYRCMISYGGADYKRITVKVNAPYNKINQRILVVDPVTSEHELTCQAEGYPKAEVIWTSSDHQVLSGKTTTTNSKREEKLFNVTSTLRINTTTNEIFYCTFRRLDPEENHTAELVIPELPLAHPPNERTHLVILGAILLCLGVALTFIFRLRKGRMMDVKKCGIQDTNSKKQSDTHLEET
How it was run: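 Binding of PE-conjugated human PD-1-Ig (1 nM final) to human PD-L1 stably expressed on a mouse B-cell line (LK35.2) was measured by high-content imaging after washes. Compound and labeled PD-1-Ig were co-incubated 1 h at 37 °C with cells in RPMI/10% FCS.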

[2] = cluster symbol, read-out: HTRF IC50 cluster
[3] = cell binding assay, cell line not given, cluster symbol, read-out: CBA IC50 cluster
[4] = cluster symbol, cell line of CBA not given (LK35.2-hPD-L1 or 293T-hPD-L1), read-out: CBA IC50 cluster

Structure (SMILES)	IC50 (Human PD-L1/PD-1; [2]) [µM]	IC50 [1, 3] [µM]	IC50 [1, 4] [µM]	IC50 (Human PD-L1/PD-1; read-out: HTRF IC50 value) [µM]	IC50 ([1]; cell line of CBA not given (LK35.2-hPD-L1 or 293T-hPD-L1), read-out: CBA IC50 value) [µM]
CCCC[C@H]1C(=O)N(C)[C@@H](CCCC)C(=O)N[C@@H](CCCNC(=N)N)C(=O)N[C@H](C(=O)NCC(N)=O)CSCC(=O)N[C@@H](Cc2ccccc2)C(=O)N(C)[C@@H](C)C(=O)N[C@@H](CC(N)=O)C(=O)N2C[C@H](F)C[C@H]2C(=O)N[C@@H](Cc2cnc[nH]2)C(=O)N[C@@H](CC(C)C)C(=O)N(C)CC(=O)N[C@@H](Cc2c[nH]c3ccccc23)C(=O)N[C@@H](CO)C(=O)N[C@@H](Cc2c[nH]c3ccccc23)C(=O)N1C [Example 5012] ({CH2CO}-F[NMeA]N[Pro(trans-4-F)]HL[Sar]WSW[NMeNle][NMeNle]RCG-NH2; thioether N-14)	> 0.0305	> 0.0743	–	–	–
CCCC[C@H]1C(=O)N(C)[C@@H](CCCC)C(=O)N[C@@H](CCCNC(=N)N)C(=O)N[C@H](C(=O)NCC(N)=O)CSCC(=O)N[C@@H](Cc2ccc(O)cc2)C(=O)N(C)[C@@H](C)C(=O)N[C@@H](CN)C(=O)N2CCC[C@H]2C(=O)N[C@@H](C)C(=O)N[C@@H](CC(C)C)C(=O)N2C[C@@H](O)C[C@H]2C(=O)N[C@@H](Cc2c[nH]c3ccccc23)C(=O)N[C@@H](CO)C(=O)N[C@@H](Cc2c[nH]c3ccccc23)C(=O)N1C [Example 1143] ({CH2CO}-Y[NMeA][Dap]PAL[cisHyp]WSW[NMeNle][NMeNle]RCG-NH2; thioether N-14)	> 0.0305	–	> 0.0743	–	–
CCCC[C@H]1C(=O)N(C)[C@@H](C)C(=O)N[C@@H](CCCNC(=N)N)C(=O)NC(C(=O)NCC(N)=O)CSCC(=O)N[C@@H](Cc2ccc(O)cc2)C(=O)N(C)[C@@H](C)C(=O)N[C@@H](CC(N)=O)C(=O)N2CCC[C@H]2C(=O)N[C@@H](Cc2cnc[nH]2)C(=O)N[C@@H](CC(C)C)C(=O)N2CCC[C@H]2C(=O)N[C@@H](Cc2c[nH]c3ccccc23)C(=O)N[C@@H](CO)C(=O)N[C@@H](Cc2c[nH]c3ccccc23)C(=O)N1C (some centres unmarked) [Example 9054] ({CH2CO}-Y[NMeA]NPHLPWSW[NMeNle][NMeA]R[ξC]G-NH2; thioether N-14)	0.000385 to 0.00674	0.00478 to 0.0729	–	–	–
CCCC[C@H]1C(=O)N(C)[C@@H](CCCC)C(=O)N[C@@H](CCCNC(=N)N)C(=O)N[C@H](C(=O)NCC(N)=O)CSCC(=O)N[C@@H](Cc2ccc(O)cc2)C(=O)N(C)[C@@H](C)C(=O)N[C@@H](CC(N)=O)C(=O)N2CCC[C@H]2C(=O)N[C@@H](Cc2cnc[nH]2)C(=O)N[C@@H](CC(C)C)C(=O)N2CCC[C@H]2C(=O)N[C@@H](Cc2c[nH]c3ccccc23)C(=O)N[C@@H](CO)C(=O)N[C@@H](Cc2c[nH]c3c(C)cccc23)C(=O)N1C [Example 1144] ({CH2CO}-Y[NMeA]NPHLPWS[Trp(7-Me)][NMeNle][NMeNle]RCG-NH2; thioether N-14)	> 0.0305	–	0.00478 to 0.0729	–	–
CCCC[C@H]1C(=O)N(C)[C@@H](CCCC)C(=O)N[C@@H](CC(C)C)C(=O)N[C@H](C(=O)NCC(N)=O)CSCC(=O)N[C@@H](Cc2ccc(O)cc2)C(=O)N(C)[C@@H](C)C(=O)N[C@@H](CC(N)=O)C(=O)N2CCC[C@H]2C(=O)N[C@@H](Cc2c[nH]cn2)C(=O)N[C@@H](CCC(N)=O)C(=O)N2C[C@H](O)C[C@H]2C(=O)N[C@@H](Cc2c[nH]c3ccccc23)C(=O)N[C@@H](CO)C(=O)N[C@@H](Cc2c[nH]c3ccccc23)C(=O)N1C [Example 5075] ({CH2CO}-Y[NMeA]NPHQ[Hyp]WSW[NMeNle][NMeNle]LCG-NH2; thioether N-14)	0.000385 to 0.00674	0.000158 to 0.00471	–	–	–
CCCC[C@H]1C(=O)N(C)[C@@H](CCCC)C(=O)N[C@@H](CCCNC(=N)N)C(=O)N[C@H](C(=O)NCC(N)=O)CSCC(=O)N[C@@H](Cc2ccccc2)C(=O)N(C)[C@@H](C)C(=O)N[C@@H](CC(N)=O)C(=O)N2CCC[C@H]2C(=O)N[C@@H](Cc2cnc[nH]2)C(=O)N[C@@H](CC(C)C)C(=O)N2CC(F)(F)C[C@H]2C(=O)N[C@@H](Cc2c[nH]c3ccccc23)C(=O)N[C@@H](CO)C(=O)N[C@@H](Cc2c[nH]c3ccccc23)C(=O)N1C [Example 1197] ({CH2CO}-F[NMeA]NPHL[Pro(4,4-F2)]WSW[NMeNle][NMeNle]RCG-NH2; thioether N-14)	0.00676 to 0.0303	–	0.00478 to 0.0729	–	–
CCCC[C@H]1C(=O)N(C)[C@@H](CCCC)C(=O)N[C@@H](CCCNC(=N)N)C(=O)N[C@H](C(=O)NCC(N)=O)CSCC(=O)N[C@@H](Cc2ccccc2)C(=O)N(C)[C@@H](C)C(=O)N[C@@H](CC(N)=O)C(=O)N2CCC[C@H]2C(=O)N[C@@H](Cc2cnc[nH]2)C(=O)N[C@@H](CC(C)C)C(=O)N(C)CC(=O)N[C@@H](Cc2cccc(OC)c2)C(=O)N[C@@H](CO)C(=O)N[C@@H](Cc2c[nH]c3ccccc23)C(=O)N1C [Example 1085] ({CH2CO}-F[NMeA]NPHL[Sar][Phe(3-OMe)]SW[NMeNle][NMeNle]RCG-NH2; thioether N-14)	> 0.0305	–	> 0.0743	–	–
CCCC[C@H]1C(=O)N(C)[C@@H](CCCC)C(=O)N[C@@H](CN)C(=O)N[C@H](C(=O)NCC(N)=O)CSCC(=O)N[C@@H](Cc2ccc(O)cc2)C(=O)N2CCC[C@H]2C(=O)N[C@@H](CC(=O)O)C(=O)N2CCC[C@H]2C(=O)N[C@@H](CN)C(=O)N[C@@H](CCC(N)=O)C(=O)N2C[C@H](O)CC2C(=O)N[C@@H](Cc2c[nH]c3ccccc23)C(=O)N[C@@H](CCN)C(=O)N[C@@H](Cc2csc3ccccc23)C(=O)N1C (stereo partly drawn) [Example 1228] ({CH2CO}-YPDP[Dap]Q[ξPro(4R-OH)]W[Dab][Bta][NMeNle][NMeNle][Dap]CG-NH2; thioether N-14)	0.00676 to 0.0303	–	0.00478 to 0.0729	–	–
CCCC[C@H]1C(=O)N(C)[C@@H](CCCC)C(=O)N[C@@H](CCCNC(=N)N)C(=O)N[C@H](C(=O)NCC(N)=O)CSCC(=O)N[C@@H](Cc2cccc(C(F)(F)F)c2)C(=O)N(C)[C@@H](C)C(=O)N[C@@H](CC(N)=O)C(=O)N2CCC[C@H]2C(=O)N[C@@H](Cc2cnc[nH]2)C(=O)N[C@@H](CC(C)C)C(=O)N(C)CC(=O)N[C@@H](Cc2c[nH]c3ccccc23)C(=O)N[C@@H](CO)C(=O)N[C@@H](Cc2c[nH]c3ccccc23)C(=O)N1C [Example 1107] ({CH2CO}-[Phe(3-CF3)][NMeA]NPHL[Sar]WSW[NMeNle][NMeNle]RCG-NH2; thioether N-14)	> 0.0305	–	> 0.0743	–	–

Next, values leading:

IC50 (Human PD-L1/PD-1; [2]) [µM]	IC50 [1, 3] [µM]	IC50 [1, 4] [µM]	IC50 (Human PD-L1/PD-1; read-out: HTRF IC50 value) [µM]	IC50 ([1]; cell line of CBA not given (LK35.2-hPD-L1 or 293T-hPD-L1), read-out: CBA IC50 value) [µM]	Structure (SMILES)
> 0.0305	–	0.00478 to 0.0729	–	–	CCCC[C@H]1C(=O)N2CCC[C@@H]2C(=O)N2C[C@H](O)C[C@H]2C(=O)N[C@@H](C(C)C)C(=O)N(C)[C@@H](Cc2ccccc2)C(=O)N[C@@H](Cc2ccc(O)cc2)C(=O)N(C)CC(=O)N[C@@H](Cc2c[nH]c3ccccc23)C(=O)N[C@@H](Cc2ccc(O)cc2)C(=O)N[C@@H](CC(C)C)C(=O)N[C@H](C(=O)NCC(N)=O)CSCC(=O)N[C@@H](Cc2ccccc2)C(=O)N(C)[C@@H](Cc2ccccc2)C(=O)N1C [Example 3174] (HELM PEPTIDE1{[O=C(C[*:3])[*:2]].F.[meF].[CCCC[C@@H](C(=O)[*:2])N(C)[*:1]].[dP].[Hyp].V.[meF].Y.[Sar].W.Y.L.C.G.[am]}$PEPTIDE1,PEPTIDE1,1:R3-14:R3$$$V2.0)
0.000385 to 0.00674	0.00478 to 0.0729	–	–	–	CCCC[C@H]1C(=O)N(C)[C@@H](CCCC)C(=O)N[C@@H](CO)C(=O)N[C@H](C(=O)NCC(N)=O)CSCC(=O)N[C@@H](Cc2ccc(O)cc2)C(=O)N(C)[C@@H](C)C(=O)N[C@@H](CO)C(=O)N2CCC[C@H]2C(=O)N[C@@H](CO)C(=O)N[C@@H](CC(C)C)C(=O)N2C[C@H](O)C[C@H]2C(=O)N[C@@H](Cc2c[nH]c3ccccc23)C(=O)N[C@@H](CO)C(=O)N[C@@H](Cc2c[nH]c3ccccc23)C(=O)N1C [Example 5116] ({CH2CO}-Y[NMeA]SPSL[Hyp]WSW[NMeNle][NMeNle]SCG-NH2; thioether N-14)
–	–	–	0.23	0.0184	CCCC[C@H]1C(=O)N(C)CC(=O)N[C@@H](Cc2ccc(O)cc2)C(=O)N[C@@H](C(C)C)C(=O)N(C)[C@@H](Cc2ccccc2)C(=O)N[C@@H](Cc2ccc(O)cc2)C(=O)N(C)CC(=O)N[C@@H](Cc2c[nH]c3ccccc23)C(=O)N[C@@H](Cc2ccc(O)cc2)C(=O)N[C@@H](CC(C)C)C(=O)N[C@H](C(=O)NCC(N)=O)CSCC(=O)N[C@@H](Cc2ccccc2)C(=O)N(C)[C@@H](Cc2ccccc2)C(=O)N1C [Example 3154] (HELM PEPTIDE1{[O=C(C[*:3])[*:2]].F.[meF].[CCCC[C@@H](C(=O)[*:2])N(C)[*:1]].[Sar].Y.V.[meF].Y.[Sar].W.Y.L.C.G.[am]}$PEPTIDE1,PEPTIDE1,1:R3-14:R3$$$V2.0)
> 0.0305	0.00478 to 0.0729	–	–	–	CCCC[C@H]1C(=O)N(C)CC(=O)N[C@@H](CC(=O)O)C(=O)N[C@@H](C(C)C)C(=O)N(C)[C@@H](Cc2ccccc2)C(=O)N[C@@H](Cc2ccc(O)cc2)C(=O)N(C)[C@@H](Cc2ccc(O)cc2)C(=O)N[C@@H](Cc2c[nH]c3ccccc23)C(=O)N[C@@H](Cc2ccc(O)cc2)C(=O)N[C@@H](CC(C)C)C(=O)N[C@H](C(=O)NCC(N)=O)CSCC(=O)N[C@@H](Cc2ccccc2)C(=O)N(C)[C@@H](Cc2ccccc2)C(=O)N1C [Example 3511] (HELM PEPTIDE1{[O=C(C[*:3])[*:2]].F.[meF].[CCCC[C@@H](C(=O)[*:2])N(C)[*:1]].[Sar].D.V.[meF].Y.[meY].W.Y.L.C.G.[am]}$PEPTIDE1,PEPTIDE1,1:R3-14:R3$$$V2.0)
